Measurements as given in PubChem BioAssay AID248 (DTP/NCI, 2004).
Several values for one entry are separate records, joined by “and”; a condition that tells them apart may be missing. Equal entries are not always repeated. Toxic doses and inconclusive results are not listed. No stated cut-off is given here; in the data, active means T/C of 150% or more; inactive means T/C below 125%.

System: L1210 leukemia ip in BDF1 mice, survival T/C
Assay: NCI In Vivo Anticancer Drug Screen. Data for tumor model L1210 Leukemia (intraperitoneal) in B6D2F1 (BDF1) mice
Conditions: endpoint: mean survival time, higher = longer survival
Outline: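 Transplanted-tumor mice were given test agent; controls received vehicle only. Survival readings from the two groups were divided (treated over control).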

[1] = dose: 100.0 mg/kg/injection, schedule: Q01DX009 (ip), vehicle: Klucel (hydroxypropylcellulose) (HPC)
[2] = dose: 200.0 mg/kg/injection, schedule: Q01DX009 (ip), vehicle: Klucel (hydroxypropylcellulose) (HPC)
[3] = dose: 400.0 mg/kg/injection, schedule: Q01DX009 (ip), vehicle: Klucel (hydroxypropylcellulose) (HPC)
[4] = dose: 25.0 mg/kg/injection, schedule: Q04DX003 (ip), vehicle: saline with Tween-80
[5] = dose: 50.0 mg/kg/injection, schedule: Q04DX003 (ip), vehicle: saline with Tween-80
[6] = dose: 100.0 mg/kg/injection, schedule: Q04DX003 (ip), vehicle: saline with Tween-80
[7] = dose: 100.0 mg/kg/injection, schedule: Q04DX003 (ip), vehicle: saline
[8] = dose: 200.0 mg/kg/injection, schedule: Q04DX003 (ip), vehicle: saline
[9] = dose: 400.0 mg/kg/injection, schedule: Q04DX003 (ip), vehicle: saline
[10] = dose: 100.0 mg/kg/injection, schedule: Q01DX001 (ip), vehicle: saline
[11] = dose: 200.0 mg/kg/injection, schedule: Q01DX001 (ip), vehicle: saline
[12] = dose: 100.0 mg/kg/injection, schedule: Q04DX003 (ip), vehicle: Klucel (hydroxypropylcellulose) (HPC)
[13] = dose: 200.0 mg/kg/injection, schedule: Q04DX003 (ip), vehicle: Klucel (hydroxypropylcellulose) (HPC)
[14] = dose: 400.0 mg/kg/injection, schedule: Q04DX003 (ip), vehicle: Klucel (hydroxypropylcellulose) (HPC)
[15] = dose: 100.0 mg/kg/injection, schedule: Q01DX009 (ip), vehicle: saline with Tween-80
[16] = dose: 200.0 mg/kg/injection, schedule: Q01DX009 (ip), vehicle: saline with Tween-80
[17] = dose: 400.0 mg/kg/injection, schedule: Q01DX009 (ip), vehicle: saline with Tween-80
[18] = dose: 50.0 mg/kg/injection, schedule: Q01DX009 (ip), vehicle: saline
[19] = dose: 100.0 mg/kg/injection, schedule: Q01DX009 (ip), vehicle: saline
[20] = dose: 200.0 mg/kg/injection, schedule: Q01DX009 (ip), vehicle: saline
[21] = dose: 100.0 mg/kg/injection, schedule: Q01DX001 (ip), vehicle: Klucel (hydroxypropylcellulose) (HPC)
[22] = dose: 200.0 mg/kg/injection, schedule: Q01DX001 (ip), vehicle: Klucel (hydroxypropylcellulose) (HPC)
[23] = dose: 400.0 mg/kg/injection, schedule: Q01DX001 (ip), vehicle: Klucel (hydroxypropylcellulose) (HPC)

Measured: T/C

CCOc1c(Cl)c(Cl)c(Cl)c(Cl)c1Cl
inactive: [1] 91 % of control | [2] 97 % of control | [3] 91 % of control

O=C(O)c1c(Cl)c(Cl)c(Cl)c(Cl)c1C(=O)c1ccccc1
inactive: dose: 75.0 mg/kg/injection, schedule: Q01DX001 (ip), vehicle: saline 109 % of control | dose: 150.0 mg/kg/injection, schedule: Q01DX001 (ip), vehicle: saline 113 % of control | dose: 300.0 mg/kg/injection, schedule: Q01DX001 (ip), vehicle: saline 101 % of control

CCCCN(CCC#N)CCCC
inactive: [4] 111 % of control | dose: 29.5 mg/kg/injection, schedule: Q01DX009 (ip), vehicle: saline with Tween-80 107 % of control | [5] 105 % of control | dose: 59.0 mg/kg/injection, schedule: Q01DX009 (ip), vehicle: saline with Tween-80 107 % of control | [6] 97 % of control | dose: 118.0 mg/kg/injection, schedule: Q01DX009 (ip), vehicle: saline with Tween-80 108 % of control

O=S(=O)(O)c1cc(O)c2ccc(NNC(O)c3ccc(Cl)c(Cl)c3)cc2c1 (stereo not drawn)
inactive: [7] 87 % of control | [8] 96 % of control | [9] 98 % of control

N=C(N)SC1c2ccccc2-c2ccccc21
inactive: dose: 10.0 mg/kg/injection, schedule: Q04DX002 (ip), vehicle: Klucel (hydroxypropylcellulose) (HPC) 97 % of control | dose: 20.0 mg/kg/injection, schedule: Q04DX002 (ip), vehicle: Klucel (hydroxypropylcellulose) (HPC) 101 % of control | dose: 40.0 mg/kg/injection, schedule: Q04DX002 (ip), vehicle: Klucel (hydroxypropylcellulose) (HPC) 101 % of control

Nc1cccc(/C=C/C=C\c2cccc([N+](=O)[O-])c2)c1
inactive: [10] 97 % of control | [11] 94 % of control | dose: 400.0 mg/kg/injection, schedule: Q01DX001 (ip), vehicle: saline 92 % of control

CCOC(=O)COCC(=O)OCC
inactive: dose: 100.0 mg/kg/injection, schedule: Q04DX002 (ip), vehicle: saline with Tween-80 98 % of control | dose: 200.0 mg/kg/injection, schedule: Q04DX002 (ip), vehicle: saline with Tween-80 98 % of control | dose: 400.0 mg/kg/injection, schedule: Q04DX002 (ip), vehicle: saline with Tween-80 102 % of control

CN1CN(c2ccccc2)C2(CCN(Cc3cc(=O)c4ccccc4o3)CC2)C1=O
inactive: [12] 102 % of control | [13] 101 % of control | [14] 98 % of control

CCCC(C)C(=O)Nc1cccc(OC(=O)NC(C)(C)C)c1 (stereo not drawn)
inactive: [15] 92 % of control | [16] 89 % of control | [17] 87 % of control

COc1ccc2c(ccc3nc(CCC(=O)O)n(C)c(=O)c32)c1
inactive: dose: 50.0 mg/kg/injection, schedule: Q01DX009 (ip), vehicle: Klucel (hydroxypropylcellulose) (HPC) 96 % of control | [1] 96 % of control | [2] 108 % of control

C=CCn1c(-c2cccs2)nc2c(Cl)ncnc21
inactive: dose: 24.0 mg/kg/injection, schedule: Q01DX009 (ip), vehicle: steriod suspending solution 88 % of control | dose: 39.0 mg/kg/injection, schedule: Q01DX009 (ip), vehicle: steriod suspending solution 90 % of control

NC(CSS(=O)(=O)O)=NCCCCCN=C(N)CSS(=O)(=O)O
inactive: dose: 12.5 mg/kg/injection, schedule: Q04DX003 (ip), vehicle: saline with Tween-80 108 % of control | [4] 102 % of control | [5] 96 % of control

CNC(=S)N/N=C/C(=N\NC(=S)NC)C(O)C(O)C(O)C(O)CO (stereo not drawn)
inactive: [18] 100 % of control | [10] 100 % of control | [19] 91 % of control | [11] 97 % of control | [20] 100 % of control

CCCCCCOc1ccc(C(=O)C(=O)c2ccccc2)cc1
inactive: dose: 100.0 mg/kg/injection, schedule: Q01DX001 (ip), vehicle: carboxymethylcellulose (CMC) 109 % of control | dose: 200.0 mg/kg/injection, schedule: Q01DX001 (ip), vehicle: carboxymethylcellulose (CMC) 88 % of control | dose: 400.0 mg/kg/injection, schedule: Q01DX001 (ip), vehicle: carboxymethylcellulose (CMC) 97 % of control

Cc1ccc(S(=O)(=O)N2CCCCC2)cc1
inactive: [7] 91 % of control | [8] 96 % of control | [9] 97 % of control

CC(=O)OC1CCC2C3CCC4=CC(=O)CCC4(C)C3=CCC12C (stereo not drawn)
inactive: dose: 100.0 mg/kg/injection, schedule: Q01DX001 (ip), vehicle: saline with Tween-80 95 % of control | dose: 200.0 mg/kg/injection, schedule: Q01DX001 (ip), vehicle: saline with Tween-80 95 % of control | dose: 400.0 mg/kg/injection, schedule: Q01DX001 (ip), vehicle: saline with Tween-80 92 % of control

c1ccc2c(c1)NC1CCCCC21 (stereo not drawn)
inactive: [21] 90 % of control | [22] 97 % of control | [23] 93 % of control

O=C(Nc1ccc(N=C(NC2CCCCC2)c2ccccc2)cc1)c1ccc(C(=O)Nc2ccc(N=C(NC3CCCCC3)c3ccccc3)cc2)cc1
inactive: dose: 15.0 mg/kg/injection, schedule: Q01DX Z (ip), vehicle: carboxymethylcellulose (CMC) 101 % of control | dose: 30.0 mg/kg/injection, schedule: Q01DX Z (ip), vehicle: carboxymethylcellulose (CMC) 97 % of control | dose: 60.0 mg/kg/injection, schedule: Q01DX Z (ip), vehicle: carboxymethylcellulose (CMC) 101 % of control | dose: 120.0 mg/kg/injection, schedule: Q01DX Z (ip), vehicle: carboxymethylcellulose (CMC) 97 % of control

Cc1nccn1C(/C(=N/O)c1ccccc1)c1ccccc1 (stereo not drawn)
inactive: [15] 96 % of control | [16] 96 % of control | [17] 94 % of control

Clc1ccc(C2=NC3=CC(Cl)C=CC3=CC2C2CO2)cc1 (stereo not drawn)
inactive: [1] 96 % of control | [12] 94 % of control | [2] 98 % of control | [13] 94 % of control | [14] 98 % of control

Cc1ccc(NC(=O)Oc2ccc3ccccc3c2)c([N+](=O)[O-])c1
inactive: [6] 99 % of control | dose: 200.0 mg/kg/injection, schedule: Q04DX003 (ip), vehicle: saline with Tween-80 99 % of control | dose: 400.0 mg/kg/injection, schedule: Q04DX003 (ip), vehicle: saline with Tween-80 89 % of control

CCCC(C(=O)OCC)C(=O)c1ccccc1 (stereo not drawn)
inactive: [12] 95 % of control | [13] 98 % of control | [14] 92 % of control

CCCc1nc2c(nc1C)C(=O)C=CC2=O
inactive: dose: 9.5 mg/kg/injection, schedule: Q01DX001 (ip), vehicle: other 98 % of control

O=[N+]([O-])c1ccc(C#CS(=O)(=O)c2ccccc2)cc1
inactive: [18] 104 % of control | [19] 96 % of control | [20] 96 % of control

CCCCCCCCCCOC(=O)C[n+]1ccc(C(N)=O)cc1
inactive: dose: 12.5 mg/kg/injection, schedule: Q04DX003 (ip), vehicle: saline 98 % of control | dose: 25.0 mg/kg/injection, schedule: Q04DX003 (ip), vehicle: saline 91 % of control | dose: 50.0 mg/kg/injection, schedule: Q04DX003 (ip), vehicle: saline 91 % of control

COc1ccc(Cl)cc1NC(=O)Nc1cccc2c(O)cccc12
inactive: [19] 96 % of control | [7] 107 % of control | [20] 100 % of control | [8] 107 % of control | dose: 400.0 mg/kg/injection, schedule: Q01DX009 (ip), vehicle: saline 96 % of control | [9] 103 % of control

CCOC(=O)Nc1cc([N+](=O)[O-])ccc1OC
inactive: [21] 105 % of control | [1] 105 % of control | dose: 100.0 mg/kg/injection, schedule: Q04DX002 (ip), vehicle: Klucel (hydroxypropylcellulose) (HPC) 96 % of control and 104 % of control | [12] 101 % of control | [22] 100 % of control | [2] 108 % of control | dose: 200.0 mg/kg/injection, schedule: Q04DX002 (ip), vehicle: Klucel (hydroxypropylcellulose) (HPC) 96 % of control and 97 % of control | [13] 98 % of control | [23] 101 % of control | [3] 102 % of control | dose: 400.0 mg/kg/injection, schedule: Q04DX002 (ip), vehicle: Klucel (hydroxypropylcellulose) (HPC) 96 % of control and 103 % of control | [14] 101 % of control
